From publication PMC5761851, “Application of a phenotypic drug discovery strategy to identify biological and chemical starting points for inhibition of TSLP production in lung epithelial cells” (PLoS ONE, 2018)

What was measured:
Test in all cases: kinase selectivity panel
Type in all cases: biochemical
EphB4 = biological target: T1, EphB4 (Homo sapiens, UniProt P54760); conditions: read-out: percentage of control activity (POC), EphB4
T1 construct: purchased Eurofins Pharma Discovery Services (KinaseProfiler; Cerep BioPrint panel)
T1 sequence (P54760 16-987): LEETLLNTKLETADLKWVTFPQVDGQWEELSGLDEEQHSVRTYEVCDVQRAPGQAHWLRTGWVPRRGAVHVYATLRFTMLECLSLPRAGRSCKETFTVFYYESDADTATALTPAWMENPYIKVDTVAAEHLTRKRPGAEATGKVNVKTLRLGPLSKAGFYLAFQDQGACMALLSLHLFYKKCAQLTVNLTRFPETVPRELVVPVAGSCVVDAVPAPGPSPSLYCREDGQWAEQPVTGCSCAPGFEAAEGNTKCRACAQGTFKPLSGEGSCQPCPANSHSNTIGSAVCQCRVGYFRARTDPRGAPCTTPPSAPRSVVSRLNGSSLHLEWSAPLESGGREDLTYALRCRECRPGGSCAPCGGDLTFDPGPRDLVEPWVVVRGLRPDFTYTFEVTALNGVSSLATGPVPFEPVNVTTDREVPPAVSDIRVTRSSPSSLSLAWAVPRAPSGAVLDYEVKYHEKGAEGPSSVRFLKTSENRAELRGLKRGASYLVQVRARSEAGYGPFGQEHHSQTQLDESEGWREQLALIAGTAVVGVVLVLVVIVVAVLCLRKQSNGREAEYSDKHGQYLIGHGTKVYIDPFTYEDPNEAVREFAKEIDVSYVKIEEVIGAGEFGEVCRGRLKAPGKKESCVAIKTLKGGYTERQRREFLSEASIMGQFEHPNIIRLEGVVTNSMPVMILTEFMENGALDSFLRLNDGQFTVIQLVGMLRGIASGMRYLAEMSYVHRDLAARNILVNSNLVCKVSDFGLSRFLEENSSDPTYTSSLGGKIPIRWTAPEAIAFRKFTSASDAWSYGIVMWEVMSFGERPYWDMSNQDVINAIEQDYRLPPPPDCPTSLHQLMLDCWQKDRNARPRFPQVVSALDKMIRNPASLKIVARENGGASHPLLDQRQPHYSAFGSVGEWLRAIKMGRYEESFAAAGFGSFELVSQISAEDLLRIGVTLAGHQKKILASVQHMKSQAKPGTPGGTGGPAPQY
Outline: (§1)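 The compound is screened at 10 μM in duplicate against 125 representative kinases. Selected activities are followed up with a nine-concentration duplicate titration to give IC50.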

NEK2 = biological target: T2, NEK2 (Homo sapiens, UniProt P51955); conditions: read-out: percentage of control activity (POC), NEK2
T2 construct: purchased Eurofins Pharma Discovery Services (KinaseProfiler; Cerep BioPrint panel)
T2 sequence (P51955 1-445): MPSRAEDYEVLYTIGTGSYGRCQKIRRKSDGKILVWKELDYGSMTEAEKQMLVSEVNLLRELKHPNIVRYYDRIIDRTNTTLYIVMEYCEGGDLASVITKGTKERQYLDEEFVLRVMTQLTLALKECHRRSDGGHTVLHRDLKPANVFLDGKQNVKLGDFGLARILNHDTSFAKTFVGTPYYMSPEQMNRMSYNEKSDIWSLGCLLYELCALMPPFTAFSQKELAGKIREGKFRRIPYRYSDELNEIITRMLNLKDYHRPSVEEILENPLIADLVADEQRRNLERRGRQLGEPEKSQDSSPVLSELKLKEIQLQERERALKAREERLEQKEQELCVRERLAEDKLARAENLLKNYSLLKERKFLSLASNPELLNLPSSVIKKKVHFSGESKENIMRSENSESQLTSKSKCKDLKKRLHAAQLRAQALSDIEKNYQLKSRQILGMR
Outline: as §1

TBK1 = biological target: T3, TBK1 (Homo sapiens, UniProt Q9UHD2); conditions: read-out: percentage of control activity (POC), TBK1
T3 construct: purchased Eurofins Pharma Discovery Services (KinaseProfiler; Cerep BioPrint panel)
T3 sequence (Q9UHD2 1-729): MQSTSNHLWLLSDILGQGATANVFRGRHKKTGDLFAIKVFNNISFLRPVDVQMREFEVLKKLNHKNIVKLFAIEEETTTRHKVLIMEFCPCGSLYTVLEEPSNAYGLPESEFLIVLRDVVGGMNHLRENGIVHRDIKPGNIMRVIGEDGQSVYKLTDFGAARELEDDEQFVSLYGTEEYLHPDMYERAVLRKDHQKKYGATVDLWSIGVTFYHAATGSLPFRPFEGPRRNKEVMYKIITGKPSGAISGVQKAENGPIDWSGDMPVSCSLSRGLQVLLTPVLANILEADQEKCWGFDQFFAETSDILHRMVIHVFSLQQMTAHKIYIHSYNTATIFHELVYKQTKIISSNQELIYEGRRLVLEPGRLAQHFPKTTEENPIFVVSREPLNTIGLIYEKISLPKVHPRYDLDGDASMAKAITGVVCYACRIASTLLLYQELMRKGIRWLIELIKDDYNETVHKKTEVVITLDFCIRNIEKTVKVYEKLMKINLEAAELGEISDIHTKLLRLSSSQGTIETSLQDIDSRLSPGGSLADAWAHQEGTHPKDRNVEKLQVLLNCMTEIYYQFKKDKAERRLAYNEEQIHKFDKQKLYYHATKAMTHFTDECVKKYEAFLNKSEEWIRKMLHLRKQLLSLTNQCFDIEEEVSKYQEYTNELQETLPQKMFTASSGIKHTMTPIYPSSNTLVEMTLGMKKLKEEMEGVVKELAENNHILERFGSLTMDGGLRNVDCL
Outline: as §1

Row | SMILES | remaining activity at 10 µM (EphB4) | remaining activity at 10 µM (NEK2) | remaining activity at 10 µM (TBK1)
1 | CC(C)(C)N1CCC(c2cc(-c3ccc(F)cc3Cl)c3cc[n+]([O-])c(-c4c(Cl)cccc4Cl)c3n2)CC1 [compound 2] | 91% | 100% | 108%
2 | Cc1ccc(C(=O)NCC2CC2)cc1-c1ccc2c(c1)NC(=O)C21CCCC1 [compound 3] | 105% | 99% | 92%
3 | Cn1cc(-c2cccc(-c3nc(C(=O)NC4C5CC6CC4CC(O)(C6)C5)c(N)nc3N)c2)cn1 (stereo not drawn) [compound 4] | 99% | 85% | 90%
4 | CS(=O)(=O)N1CCN(c2ccc(Nc3ncc(C(N)=O)c(NC4CC4)n3)cc2)CC1 [compound 5] | 36% | 4% | -1%
5 | COc1c(NC(=O)c2ccc(C)c(-c3nnc4c(NCC(C)(C)C)nccn34)c2)cc(C(C)(C)C)cc1NS(C)(=O)=O [compound 7, reference compound] | 92% | 95% | 103%
